Measurements from PubChem BioAssay (NCI).
Where “and” joins values, the source holds several entries; their conditions need not be identical. Equal entries are not always repeated.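 Grown in 96-well plates, cells were treated for 48 hours with each compound at five concentrations. Insufficient inhibition: endpoint recorded as highest concentration tested. The concentration for 50% growth inhibition is given as GI50. Definition used: TGI = concentration required for complete inhibition of growth.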

Test system: MDA-MB-468 breast
Experiment: NCI tumour cell line growth inhibition, 48 h

| Structure (SMILES) | GI50 | TGI |
| --- | --- | --- |
| CC(=O)OCC1OC([S-])C(OC(C)=O)C(OC(C)=O)C1OC(C)=O.[Au+].c1ccc(CN2[CH-]N(Cc3ccccc3)C(c3ccccc3)=C2c2ccccc2)cc1 | 1630 nM and 306 nM | 3410 nM and 1170 nM |
| CC[C@H](C)[C@H](NC(=O)[C@H]1CCCCN1C)C(=O)N(C)[C@H](C[C@@H](OC(C)=O)c1nc(C(=O)NC23C4C5C2C2C3C4C52C(=O)OC)cs1)C(C)C (stereo partly specified) | 0.428 nM and < 2.5 nM | 6.95 nM and < 2.5 nM |
| Cn1cc(-c2csc(-c3cn(CCCN4CCCCC4)c4ccc(Br)cc34)n2)c2cccnc21 | 1860 nM | 3550 nM |
| COc1ccc(C(=O)/C=C/c2c(C(F)(F)F)nc3ccccn23)cc1OC | 1810 nM | 5060 nM |
| O=C(C(=O)c1cccnc1)c1cccnc1 | > 100000 nM | > 100000 nM |
| COc1ccc2c(c1)C(=O)/C(=C/c1cccc(OCC(=O)c3ccc([N+](=O)[O-])cc3)c1)CO2 | 1580 nM | 3510 nM |
| COC1/C=C/OC2(C)Oc3c(C)c(O)c4c(O)c(c(/C=N/N(c5ccccc5)c5ccccc5)c(O)c4c3C2=O)NC(=O)C(C)=C/C=C/C(C)C(O)C(C)C(O)C(C)C(OC(C)=O)C1C (stereo unspecified) | 1840 nM | 7500 nM |
| Cc1ccc2c(c1)C(=O)/C(=C/c1cccc(OCC(=O)c3ccc(Cl)cc3)c1)CS2 | 2410 nM | 7070 nM |
| CCN(CC)CCOc1ccc(NC(=O)C(C(C)C)N2C(=O)/C(=C/c3ccc(Br)cc3)SC2=S)cc1 (stereo unspecified) | 1920 nM | 3940 nM |
| O=C(CCN1CCCC1)Nc1ccc2c(Nc3ccc(Br)cc3)c3ccccc3nc2c1 | 1720 nM | 3270 nM |
| O=c1oc2ccc(I)cc2c(=O)n1-c1ccc(I)cc1F | 521 nM | 2940 nM |
| CCCCNP1(NCCCC)=NP(NCCCC)(NCCCC)=NP(NCCCC)(NCCCC)=NP(NCCCC)(NCCCC)=N1 | 194 nM | 2910 nM |
| COc1ccc(C2CC(c3ccc4ccccc4c3)=NN2c2nc(O)c(C3=c4cc(Cl)ccc4=NC3=O)s2)cc1 (stereo unspecified) | 21 nM and < 5 nM | – |
| O=c1[nH][nH]c(=O)c2c(O)c(-c3ccccc3)ncc12 | 25200 nM and 48200 nM | 55800 nM and 235000 nM |
| O=C1c2c(c3c4ccccc4n(CCCCCCN4CCOCC4)c3c3[nH]c4ccccc4c23)C(=O)N1O | 1970 nM | 4690 nM |
| CC1=C[C@H]2O[C@@H]3C[C@H]4OC(=O)/C=C\C=C\[C@H]([C@@H](C)O)OCC/C(C)=C/C(=O)OC[C@@]2(CC1)[C@]4(C)[C@]31CO1 | 3.56 nM | 12.4 nM |
| O=C(Nc1cccc(-n2ccc3c(NC(=O)c4ccccc4)nccc32)c1)c1ccc(Cl)c(Cl)c1 | 176 nM | 903 nM |
| O=C1NC(c2cccc3ccccc23)Nc2ccccc21 (stereo unspecified) | 127 nM | > 100000 nM |
| Oc1ccccc1/C=N\Nc1ccccc1 | 4930 nM | 55800 nM |
| COc1ccccc1-c1ccc2c(N)c(C(=O)c3ccc4c(c3)OCO4)sc2n1 | 2430 nM | 8640 nM |
| Cc1cnc(-c2ccc(-c3ccc(NC(=O)Nc4cccc(C(F)(F)F)c4)cc3F)c3c2C(=O)NC3)[nH]1 | 12600 nM | 31100 nM |

| Structure (SMILES) | GI50 | TGI |
| --- | --- | --- |
| COc1ccc(Cl)cc1Nc1nc(C(F)(F)F)ccc1C(=O)N/N=C/c1ccccc1Cl | 1850 nM | 18500 nM |
| CCc1c2c(nc3ccc(OC(=O)OCc4ccc(B5OC(C)(C)C(C)(C)O5)cc4)cc13)-c1cc3c(c(=O)n1C2)COC(=O)[C@]3(O)CC | < 10 nM | 54.5 nM |
| CCN(CC)CCNc1ccc(N=Nc2cnc3ccccc3c2)c2ccccc12 | 1340 nM | 2640 nM |
| N#Cc1ccc(C(=O)c2cnn(-c3ccc(F)cc3)c2N)cc1 | > 25000 nM | > 25000 nM |
| C#Cc1cccc(Nc2ncnc3ccc(-c4cnc(N)nc4)cc23)c1 | 376 nM | 1770 nM |
| COc1ccc(-c2nsc3c2NC(=O)CC3c2cccc(F)c2)cc1 (stereo unspecified) | 1940 nM | 6980 nM |
| COc1cc(C(=O)c2cnc(-c3ccc4cc[nH]c4c3)[nH]2)cc(OC)c1OC | 32.7 nM | 2660 nM |
| Fc1ccc(-c2c(-c3ccncc3)[nH]c3cccnc23)cc1 | 3780 nM | 24700 nM |
| O=C1/C=C/[C@@H](O)[C@@H]2C[C@@H](O)C[C@H]2/C=C/CCC[C@H](CCc2ccc(NC(=S)Nc3ccc4c(c3)C(=O)OC43c4ccc(O)cc4Oc4cc(O)ccc43)cc2)O1 | 178 nM | 449 nM |
| COc1ccc2[nH]cc(C3(c4c[nH]c5ccc(OC)cc45)C(=O)Nc4ccc(Cl)cc43)c2c1 | 2500 nM | 7850 nM |
| CN(C)C[C@@H]1CCn2cc(c3ccccc32)C2=C(C(=O)NC2=O)c2cn(c3ccccc23)CCO1 | 2170 nM | > 10000 nM |
| CC[C@H](C)C(=O)O[C@H]1CCC=C2C=C[C@H](C)[C@H](CC[C@@H]3C[C@@H](O)CC(=O)O3)[C@H]21 | 3130 nM | 11600 nM |
| CN(C)CCN(C)c1ccc2ncc(C#Cc3cncc(C(=O)Nc4ccc(CN5CCN(C)CC5)c(C(F)(F)F)c4)c3)n2n1 | 3080 nM | 9910 nM |
| CN1CCN(C(=O)[C@@]2(C)CC[C@]3(C)CC[C@]4(C)C(=CC[C@@H]5[C@@]6(C)CC[C@H](OC(=O)c7cccnc7)C(C)(C)[C@@H]6CC[C@]54C)[C@@H]3C2)CC1 | 1710 nM | 3510 nM |
| CN(C)c1ccc2cc3c(cc2c1)Oc1ccccc1N3.[Cl][Zn][Cl] | 1090 nM | 3150 nM |
| CCCn1cc(/C=N\N=C2\C(=O)Nc3ccc(C)cc32)c2ccccc21 | 1690 nM | 5780 nM |
| CN(CCCCCCCCNc1ccnc2ccccc12)Cc1ccc(-c2ccc(-c3ccc(C#N)cc3)s2)cc1 | 69.8 nM | 1290 nM |
| C=C1C(=O)O[C@H]2[C@H]1CC/C(CNC(=O)C(C)c1ccc(CC(C)C)cc1)=C\CC[C@@]1(C)O[C@@H]21 (stereo partly specified) | 1430 nM | 3120 nM |
| N#Cc1ccc(O)c(C2=NCC(c3ccc(-c4ccccc4)cc3)O2)c1 (stereo unspecified) | 256 nM | 1810 nM |
| CCCCCCCCCCCCSC1=CC(=O)C=CC1=O | 7090 nM | > 34600 nM |
